# Legend:
# zebrafish larvae = experiment: Measurement of glucose uptake in zebrafish (2-NBDG); assay type: in vivo; conditions: 10 μg/mL
# Protocol: FIG. 12. […] (a) Schematic of our approach to measure the effect of ENOblock treatment on […] in zebrafish.
# At 72 hpf, larvae were placed into a 96-well plate (6 eggs/well in 200 μL E3 water supplemented with 0.2 mM 2-phenylthiourea; Sigma). Drug of interest was added for […]. The solution was then replaced with E3 water supplemented with 600 μM 2-NBDG and incubated for 3 h. The larva were washed with E3 water and anesthetized with 0.02% tricaine-supplemented E3 water. One larva was then placed on a chamber slide, containing 3% methylcellulose in E3 water, for fluorescent microscopy (Leica DM2500 microscope equipped with a DFC425 C digital camera). Images were captured at 50× magnification. The remaining 5 larvae where lysed with 120 μL of CelLytic M solution (Sigma-Aldrich) and sonication (4° C., 10″/5″ pulse, 10 min). Lysed larvae were centrifuged at 10000 rpm for 10 min. 100 μL of the supernatant was transferred to a 96-well plate and fluorescence was measured with a fluorescent microplate reader (SpectraMAX Gemini XS, Molecular Devices; λex=466 nm […]).
# [1] = target: T1, Enolase purified from rabbit muscle (Oryctolagus cuniculus, UniProt P25704); experiment: Enolase activity assay; assay type: biochemical; conditions: purified enolase
# T1 construct: Enolase purified from rabbit muscle was purchased from Sigma-Aldrich; purchased Sigma-Aldrich; host or cells: rabbit muscle
# T1 sequence (P25704 whole entry): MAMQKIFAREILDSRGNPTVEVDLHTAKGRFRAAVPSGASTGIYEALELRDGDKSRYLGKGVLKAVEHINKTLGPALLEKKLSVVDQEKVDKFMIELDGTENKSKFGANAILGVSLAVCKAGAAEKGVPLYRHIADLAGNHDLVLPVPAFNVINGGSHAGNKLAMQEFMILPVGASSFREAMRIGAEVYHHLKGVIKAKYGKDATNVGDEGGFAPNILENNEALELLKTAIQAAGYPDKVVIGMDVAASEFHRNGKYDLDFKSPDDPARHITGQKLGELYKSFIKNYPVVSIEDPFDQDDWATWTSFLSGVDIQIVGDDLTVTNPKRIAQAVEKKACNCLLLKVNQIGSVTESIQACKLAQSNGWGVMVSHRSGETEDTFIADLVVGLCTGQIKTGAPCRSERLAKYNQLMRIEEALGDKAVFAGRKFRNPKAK
# Protocol: FIG. 4. […] (a) Affinity chromatography study for ENOblock in HCT116 cancer cells. […] (b) Sequence identification for the enolase monomer subunit. […] Mascot scores above 100 were deemed to be significant. […] Twenty micrograms of cell lysate from YD-10B oral cancer cells or Huh7 hepatocytes were used as positive controls. […] As a positive control, ENOblock affinity matrix was incubated with 200 μg of HCT 116 cell lysate; 50 μg cell lysate from HCT116 cancer cells was used as a positive control for the enolase antibody.
# Enolase purified from rabbit muscle was purchased from Sigma-Aldrich. A single unit of enolase is defined as the amount of enzyme that produces 1 μmol of phosphoenol pyruvate from phospho-D-glycerate/min in standard assay.^52 Enolase activity assay was measured at 37° C. by incubating pure enolase (3-9 U) in a buffer containing 50 mM imidazole-HCl (pH 6.8)(JUNSEI), 2.0 mM MgSO4 (JUNSEI) and 400 mM KCl (JUNSEI) in the absence or presence of ENOblock or NaF (Sigma). The reaction was initiated by adding 1 μmol of 2-phospho-D-glycerate, and the OD was measured after 10 min of reaction time with a spectrophometer at 240 nm.
# purified enolase = purified enolase (Schistosoma mansoni, UniProt Q27877); conditions: cited from earlier work
# purified enolase, sequence (Q27877 whole entry): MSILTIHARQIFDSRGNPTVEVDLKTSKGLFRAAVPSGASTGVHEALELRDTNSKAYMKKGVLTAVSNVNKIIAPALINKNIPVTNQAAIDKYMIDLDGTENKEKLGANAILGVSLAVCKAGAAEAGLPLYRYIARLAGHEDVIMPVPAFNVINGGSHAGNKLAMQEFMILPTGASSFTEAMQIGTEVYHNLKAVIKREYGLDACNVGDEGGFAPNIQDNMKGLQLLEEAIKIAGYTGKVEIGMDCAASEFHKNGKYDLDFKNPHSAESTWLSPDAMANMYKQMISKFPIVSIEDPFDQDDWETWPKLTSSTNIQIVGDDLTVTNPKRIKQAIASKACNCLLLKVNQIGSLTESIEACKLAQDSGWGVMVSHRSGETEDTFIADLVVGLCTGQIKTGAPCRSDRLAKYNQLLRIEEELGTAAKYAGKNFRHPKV
# [2] = target: recombinant enolase from Schistosoma mansoni (Schistosoma mansoni, UniProt Q27877); conditions: cited from earlier work
# recombinant enolase from Schistosoma mansoni, sequence (Q27877 whole entry): as above
# [3] = test system: pre-adipocytes undergoing adipogenesis; experiment: Adipogenesis lipid accumulation (Oil Red O staining); assay type: cell-based; conditions: without adipogenesis-inducing factors
# [4] = test system: PEPCK expression in HEK cells; experiment: PEPCK expression in kidney cells; assay type: cell-based; conditions: 1 μg/mL, 24 h
# From the text: FIG. 10. […] Error=SD; *=P<0.05 compared to the no drug (DMSO-treated) group. […] Error=SD; *=P<0.05 for reduced PEPCK expression compared to the no drug (DMSO-treated) group.
compound,measurement,setting,value
"Cc1cc(O)c2c(c1)C(=O)c1cc(O)cc(O)c1C2=O [emodin, 6-methyl-1,3,8-trihydroxyanthraquinone, reference compound]",glucose uptake in larvae (2-NBDG fluorescence microscopy),zebrafish larvae,enhanced glucose uptake in a similar but more intense pattern compared to the zebrafish treated with ENOblock
same,2-NBDG fluorescence signal intensity in the eye,"zebrafish larvae; 72 hpf larvae, 4 h, vs 2-NBDG alone",induced significantly greater fluorescent tagged glucose uptake in the zebrafish eye
"[F-].[Na+] [NaF, sodium fluoride, reference compound]",treatment concentration giving enolase activity level approximated by 2.5 μM ENOblock,[1],1 mM
OC(c1cc(C(F)(F)F)nc2c(C(F)(F)F)cccc12)C1CCCCN1 (stereo not shown) [mefloquine],inhibition of purified enolase activity,purified enolase,could not inhibit purified enolase activity
same,direct binding to recombinant enolase,[2],could not directly bind to recombinant enolase from this parasite
insulin: insulin,"lipid accumulation in preadipocytes (Oil Red O, microscopy)",[3],still induced lipid accumulation
same,PEPCK expression,[4],did not reduce PEPCK expression

# Source: patent US9364480B2, “Pharmaceutical composition for preventing or treating cancer, containing enoblock as active ingredient” (GWANGJU INSTITUTE OF SCIENCE AND TECHNOLOGY, priority 2012, dated 2016)
